From patent US20240174596A1 (Northwestern University, priority 2021, published 2024)
Counter-ions that a name gives are not always drawn. Like-named read-outs stand apart in the source and are kept apart here.

What was measured:
[1] = target: T1, Asp-AT (Sus scrofa, UniProt P00503); test: Inhibition of Asp-AT; type: biochemical, porcine
T1 construct: L-aspartate aminotransferase (Asp-AT) from the porcine heart; purchased Sigma-Aldrich G2751-2KU; host or cells: porcine heart
Experimental: All reagents for enzyme purification and assays were purchased from Sigma-Aldrich (St. Louis, MO, USA). […] All the enzyme assays for the inactivation, partition ratio, and dialysis experiment were recorded on a Synergy H1 hybrid multimode microplate reader (Biotek, USA) with transparent 96-well plates. […]
potassium phosphate at pH 7.4, 5.55 mM α-ketoglutarate, 1.11 mM NADH, 5.55 mM […], 5.55 units of malic dehydrogenase, and various concentrations of SS-1-148. […] The plate was shaken at room temperature for 1 min, and the absorbance was measured at 340 nm every 10 s for 90 min based on the conversion of NADH to NAD^+. The remaining Asp-AT activity percentage was calculated according to the corresponding concentrations. […]

[2] = target: T2, hOAT (Homo sapiens, UniProt P04181); test: Denaturing intact protein mass spectrometry of inactivated hOAT; conditions: hOAT fully inactivated; denaturing intact LC-MS
T2 construct: made in house; host or cells: E. coli BL21(DE3)
T2 sequence (P04181 26-439): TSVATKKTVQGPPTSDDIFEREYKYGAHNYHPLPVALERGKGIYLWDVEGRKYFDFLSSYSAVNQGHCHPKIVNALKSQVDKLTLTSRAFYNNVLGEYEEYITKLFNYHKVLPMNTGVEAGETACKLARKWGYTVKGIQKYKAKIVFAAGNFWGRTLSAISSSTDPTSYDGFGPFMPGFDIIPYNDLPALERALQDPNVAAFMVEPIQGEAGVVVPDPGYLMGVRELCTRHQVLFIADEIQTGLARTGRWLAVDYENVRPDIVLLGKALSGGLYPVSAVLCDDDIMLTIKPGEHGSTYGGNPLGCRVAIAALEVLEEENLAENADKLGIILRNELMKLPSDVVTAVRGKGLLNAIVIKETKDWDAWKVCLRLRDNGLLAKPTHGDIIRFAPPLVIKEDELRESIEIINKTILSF
Excerpt: The majority of hOAT remained unmodified (FIG. 5A, top) in comparison with native hOAT as a control (FIG. 5A, bottom). […] However, one would expect a higher abundance of covalently adducted enzyme under these conditions where the enzyme is fully inactivated. This finding thus supported a major non-covalent, inactivation mechansim between hOAT and SS-1-148.
Treated and unmodified purified hOAT samples were desalted ten times with Optima-grade water (Fisher) on Amicon Ultra 10 KDa molecular weight spin filters (Millipore). To chromatographically resolve protein. 0.5 μg of protein was loaded onto a 3 cm PLRP-S (Agilent) trap column using a Dionex Ultimate3000 liquid chromatography system (Thermo Fisher). The protein analyte was washed with a 10-min isocratic gradient of 10% Solvent B (95% acetonitrile/5% H2O/0.2% formic acid) and 90% Solvent A (5% acetonitrile/95% H20/0.2% formic acid). Protein was resolved on an in-house made 75 μm ID×15 cm long nanopore capillary column packed with PLRP-S resin (Agilent). […]

[3] = Liver microsomal stability, human; type: in vitro ADME
[4] = Plasma protein binding, human; type: in vitro ADME
[5] = target: T3, CYP 1A2 (Homo sapiens, UniProt P05177); test: CYP inhibition 1A2; type: in vitro ADME
T3 sequence (P05177 1-516): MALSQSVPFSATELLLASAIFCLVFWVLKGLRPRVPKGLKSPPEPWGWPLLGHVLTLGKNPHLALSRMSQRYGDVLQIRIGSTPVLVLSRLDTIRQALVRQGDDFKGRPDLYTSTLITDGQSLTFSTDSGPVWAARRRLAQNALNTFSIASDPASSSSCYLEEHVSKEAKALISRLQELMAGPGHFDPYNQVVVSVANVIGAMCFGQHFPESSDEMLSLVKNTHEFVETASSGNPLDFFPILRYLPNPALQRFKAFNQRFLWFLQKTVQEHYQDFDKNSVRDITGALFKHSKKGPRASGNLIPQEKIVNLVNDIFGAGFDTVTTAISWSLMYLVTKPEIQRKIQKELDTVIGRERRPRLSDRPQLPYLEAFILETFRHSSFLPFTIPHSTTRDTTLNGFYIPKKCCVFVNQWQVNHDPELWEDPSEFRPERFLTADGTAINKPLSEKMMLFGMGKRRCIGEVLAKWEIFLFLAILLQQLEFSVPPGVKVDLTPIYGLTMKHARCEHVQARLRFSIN

[6] = Brain/plasma PK studies; type: in vivo; conditions: brain, read-out: B/P ratio

T1 sequence (P00503 2-413 limits assumed): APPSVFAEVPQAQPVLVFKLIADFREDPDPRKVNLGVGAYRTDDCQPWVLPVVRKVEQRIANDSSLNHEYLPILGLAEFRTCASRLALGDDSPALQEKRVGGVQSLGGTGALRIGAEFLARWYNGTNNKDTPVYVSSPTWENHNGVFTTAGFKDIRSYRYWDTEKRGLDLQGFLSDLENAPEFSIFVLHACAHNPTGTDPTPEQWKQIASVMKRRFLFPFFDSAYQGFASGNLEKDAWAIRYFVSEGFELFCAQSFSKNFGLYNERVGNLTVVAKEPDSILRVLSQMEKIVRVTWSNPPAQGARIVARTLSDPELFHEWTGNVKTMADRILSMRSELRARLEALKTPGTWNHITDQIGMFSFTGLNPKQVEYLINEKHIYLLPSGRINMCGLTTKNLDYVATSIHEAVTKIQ

## N[C@H]1C=C(C(=O)O)CC1(F)F [SS-1-148, (S)-3-Amino-4,4-difluorocyclopent-1-enecarboxylic acid hydrochloric acid salt]
[1]; read-out: Off-target effects (Ki, mM) Asp-AT
  Ki: > 20 mM
[1]; up to 10 mM
  inhibition on Asp-AT: did not show noticeable inhibition
[2]
  hOAT covalently modified: ~16%
[3]
  Liver microsomal stability (t1/2) Human: N/C
[4]
  fraction unbound: 1
[5]
  IC50: > 100 µM
[6]; IV (5 mg/kg)
  Kp at 0.25 h: 0.2
[6]; PO (30 mg/kg)
  Kp at 0.25 h: 0.14
[6]; PO (30 mg/kg), 2 h
  Kp at 2 h: 0.26
